Experiment [1] has as its target T1, Hsp70i C306D mutant (Homo sapiens, UniProt P0DMV8, C306D).
T1 construct: His tag (cleaved yes); made in house
Put plainly: Thermofluor assay, Hsp70i C306D mutant. The settings on record: ±ATP. The format is binding. How it is done: (§1) Protein Purification: Plasmids were provided for human HSPA1A, HSPA8, and HSPA1A C306D. Plasmids were transformed in Rosetta competent cells and single colonies were picked from streaked LB/ampicillin/chloramphenicol plates. Cultures were grown at 37° C. for 4-6 hours, were cooled to 15° C. and expression was induced overnight with 200 uM isopropyl 1-thio-β-D-galactopyranoside. Cells were pelleted and resuspended in Ni-lysis buffer (50 mM Na2HPO4, 300 mM NaCl, 10 mM Imidazole, 0.05% Tween-20) supplemented with Complete Mini protease inhibitor tablets (Roche, Mannheim, Germany) and […], and then sonicated. The cells were again pelleted and the supernatant was incubated with complete His-Tag purification resin (Roche, Mannheim, Germany) for 5 hours at 4° C. The resin was washed with Ni-wash buffer (50 mM Na2HPO4, 300 mM NaCl, 20 mM Imidazole, 0.05% Tween-20) and eluted with Ni-elution buffer (50 mM Na2HPO4, 300 mM NaCl, 250 mM Imidazole, 0.05% Tween-20). […]
(§2) Thermofluor Assay: SYPRO orange (Molecular Probes, Eugene, Oreg.) was diluted 1:1000 in 25 mM HEPES, 5 mM MgCl2, 10 mM KCl (pH 7.5) and purified Hsp70i, Hsc70, Hsp70i C306, or Hsp90, was then added to a final dilution of 0.04 mg/ml. […] A melt curve protocol (25° C. to 90° C., increasing 0.5° C. and a plate reading every 30 seconds) was run on a CFX384 Touch™ Real-Time PCR Detection System (BioRad). […]
For orientation: Differential scanning fluorimetry follows unfolding on heating by fluorescence.

Experiment [2] deals with T2, Hsp70 (Sus scrofa, UniProt P34930).
T2 construct: from tissue; host or cells: pig bladder
T2 sequence (P34930 whole entry): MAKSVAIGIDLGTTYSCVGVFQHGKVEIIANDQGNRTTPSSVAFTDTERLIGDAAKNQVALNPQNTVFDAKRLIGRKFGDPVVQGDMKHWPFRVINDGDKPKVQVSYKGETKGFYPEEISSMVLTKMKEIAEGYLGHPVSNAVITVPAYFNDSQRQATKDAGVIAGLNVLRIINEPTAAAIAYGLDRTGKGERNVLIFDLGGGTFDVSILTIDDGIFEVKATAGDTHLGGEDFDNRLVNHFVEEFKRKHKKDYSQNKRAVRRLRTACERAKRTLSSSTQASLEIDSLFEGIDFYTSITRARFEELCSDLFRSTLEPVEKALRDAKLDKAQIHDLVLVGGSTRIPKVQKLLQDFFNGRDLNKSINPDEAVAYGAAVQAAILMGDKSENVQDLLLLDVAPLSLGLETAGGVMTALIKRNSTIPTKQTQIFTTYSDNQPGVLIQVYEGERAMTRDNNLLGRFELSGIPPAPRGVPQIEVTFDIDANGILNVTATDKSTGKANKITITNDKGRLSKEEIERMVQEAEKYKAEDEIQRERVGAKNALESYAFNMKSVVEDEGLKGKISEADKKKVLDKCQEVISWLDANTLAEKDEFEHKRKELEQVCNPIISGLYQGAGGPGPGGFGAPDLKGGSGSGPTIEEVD
Put plainly: Endogenous Hsp70 elution from ATP resin, pig bladder lysate. The format is binding. Conditions: few non-specific eluted proteins. As to the method: Endogenous Hsp70 elution: Pig bladder tissue was used for eluting endogenous Hsp70 from the γ-phosphate ATP sepharose resin. Tissue was homogenized in liquid nitrogen and stored at −80° C. until further use. Tissue mass was measured (g) and then 2.5× volume (mL) of tissue lysis buffer (50 mM HEPES, 60 mM MgCl2, 60 mM KCl, 1 mM DTT) was added and homogenized on a laboratory blender. A total of 25 grams of homogenized tissue was typically used for each experiment. Subsequent to lysis, the tissue was centrifuged at 35,000 RPM in a Beckman Type 45 Ti rotor (Brea, Calif.) for 45 minutes at 4° C., and then filtered over silica wool. The filtered supernatant was then added to the γ-phosphate ATP sepharose resin and washed as previously described in the FLECS screen. Compounds were used to elute Hsp70 and the elutions were then separated by SDS-PAGE and analyzed by Western blot or the gels were visualized by silver stain.

In experiment [3] the target is Hsp70i (Homo sapiens, UniProt P0DMV8). Put plainly: Partial proteolysis of Hsp70i with trypsin. Conditions: 100 uM compound, silver stain. Also noted: Full length Hsp70 (black arrow) and tryptic fragments (blue arrows); His tag (cleaved yes); made in house. As to the method:
Mass Spectrometry: Tryptic peptides were subjected to matrix-assisted laser desorption-ionization mass spectrometry (MALDI-MS) on an ABSCIEX TOF/TOF 5800 mass spectrometer. Positive mode time of flight was used to identify peptides, and individual peptides were sequenced by MS/MS. All sequence and peptide fingerprint data was searched using the UniProt database.
Partial Proteolysis: Hsp70i (8 μg for SDS-PAGE analysis, 2 μg for mass spec analysis) was incubated with 1 mM ATP, 1 mM ADP, 100 uM HS72, 100 uM HS72+1 mM ATP, or 100 uM HS72+1 mM ADP for 30 min. at room temperature. Hsp70i was digested by adding 0.1 μg of trypsin (Promega, Madison, Wis.) per 2 μg of protein and was quenched by addition of 25% TFA for mass spec analysis or addition of 5×SDS loading buffer and boiling for SDS-PAGE analysis at 2 hours, or 24 hours. Gels were visualized by silver stain.

Experiment [4] addresses T3, Hsc70 (Homo sapiens, UniProt P11142).
T3 construct: His tag (cleaved yes); made in house
Put plainly: Thermofluor assay, purified Hsc70. The format is binding. Conditions: ±ATP. As to the method: as §1, §2

Experiment [5] concerns BT474. As to the kind of experiment: Cell proliferation, BT474. The format is cell-based. As to the method: (§3) Cell Proliferation: Cell proliferation was determined using a Hoechst stain (Sigma, St. Louis, Mo.) to quantify DNA. 5,000 cells of the designated cell line were plated in 96 well plates and treated the next day, designated as time point 0, with the indicated concentration of the specified compound maintained for the duration of the assay. At the indicated time points the media was removed and plated frozen at −80° C. Double distilled H2O was then added and the plates were incubated at 37° C. for 1 hour. After 1 hour the plates were frozen at −80° C. After freezing the plates were thawed and Hoechst stain was diluted 1:1000 in THE buffer (10 mM Tris, 2M NaCl, 1 mM Na2EDTA). The final fluorescence was measured on the Victor X2 plate reader at 355/460 nm, and cell proliferation was determined with the formula: % Cell Proliferation=100×(Sample fluorescence−background fluorescence)/(Control fluorescence−background fluorescence).

The test system of experiment [6] is NF639. As to the kind of experiment: Cell proliferation, NF639. The format is cell-based, mouse. How it is done: as §3
The test system of experiment [7] is MCF7. Put plainly: Cell proliferation, MCF7. The format is cell-based. The settings on record: MCF7. How it is done:
as §3

The test system of experiment [8] is SkBr3. As to the kind of experiment: Cell proliferation, SkBr3. The format is cell-based. The settings on record: SkBr3. As to the method:
as §3

Hsp70i, sequence (P0DMV8 whole entry, the tested form may be a part): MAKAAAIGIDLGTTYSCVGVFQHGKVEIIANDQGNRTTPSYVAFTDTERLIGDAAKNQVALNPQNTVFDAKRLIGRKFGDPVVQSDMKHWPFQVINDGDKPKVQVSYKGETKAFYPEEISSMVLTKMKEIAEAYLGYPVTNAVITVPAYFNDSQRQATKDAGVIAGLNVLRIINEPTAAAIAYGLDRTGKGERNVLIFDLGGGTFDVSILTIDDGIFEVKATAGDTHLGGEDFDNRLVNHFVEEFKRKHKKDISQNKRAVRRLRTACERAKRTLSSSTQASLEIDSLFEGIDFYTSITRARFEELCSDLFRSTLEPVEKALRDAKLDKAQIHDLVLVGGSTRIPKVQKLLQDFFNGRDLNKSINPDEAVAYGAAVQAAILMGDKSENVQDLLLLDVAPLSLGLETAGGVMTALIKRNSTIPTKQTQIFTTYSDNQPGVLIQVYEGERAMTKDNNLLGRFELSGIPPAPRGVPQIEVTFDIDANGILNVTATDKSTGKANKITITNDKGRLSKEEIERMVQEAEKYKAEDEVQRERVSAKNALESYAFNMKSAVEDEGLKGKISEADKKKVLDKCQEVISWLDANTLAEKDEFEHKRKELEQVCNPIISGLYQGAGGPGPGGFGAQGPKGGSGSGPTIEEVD
T1 sequence (P0DMV8 whole entry C306D): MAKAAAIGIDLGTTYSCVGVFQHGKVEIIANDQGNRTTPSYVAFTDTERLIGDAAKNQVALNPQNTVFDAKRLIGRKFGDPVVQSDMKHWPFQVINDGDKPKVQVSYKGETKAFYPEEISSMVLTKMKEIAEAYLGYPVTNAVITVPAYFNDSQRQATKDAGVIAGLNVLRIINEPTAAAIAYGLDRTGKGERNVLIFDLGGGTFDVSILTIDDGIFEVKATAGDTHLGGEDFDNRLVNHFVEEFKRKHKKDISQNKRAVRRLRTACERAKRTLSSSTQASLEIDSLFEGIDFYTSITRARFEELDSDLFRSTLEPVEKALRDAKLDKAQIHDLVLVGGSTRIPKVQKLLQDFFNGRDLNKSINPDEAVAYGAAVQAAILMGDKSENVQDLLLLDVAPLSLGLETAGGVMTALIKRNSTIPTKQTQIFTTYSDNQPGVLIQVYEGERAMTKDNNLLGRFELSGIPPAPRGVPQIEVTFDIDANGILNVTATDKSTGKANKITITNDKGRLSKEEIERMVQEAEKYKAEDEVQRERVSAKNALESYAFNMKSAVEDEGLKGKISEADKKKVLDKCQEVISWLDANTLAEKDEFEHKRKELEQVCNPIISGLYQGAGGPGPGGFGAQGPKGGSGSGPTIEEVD
T3 sequence (P11142 whole entry): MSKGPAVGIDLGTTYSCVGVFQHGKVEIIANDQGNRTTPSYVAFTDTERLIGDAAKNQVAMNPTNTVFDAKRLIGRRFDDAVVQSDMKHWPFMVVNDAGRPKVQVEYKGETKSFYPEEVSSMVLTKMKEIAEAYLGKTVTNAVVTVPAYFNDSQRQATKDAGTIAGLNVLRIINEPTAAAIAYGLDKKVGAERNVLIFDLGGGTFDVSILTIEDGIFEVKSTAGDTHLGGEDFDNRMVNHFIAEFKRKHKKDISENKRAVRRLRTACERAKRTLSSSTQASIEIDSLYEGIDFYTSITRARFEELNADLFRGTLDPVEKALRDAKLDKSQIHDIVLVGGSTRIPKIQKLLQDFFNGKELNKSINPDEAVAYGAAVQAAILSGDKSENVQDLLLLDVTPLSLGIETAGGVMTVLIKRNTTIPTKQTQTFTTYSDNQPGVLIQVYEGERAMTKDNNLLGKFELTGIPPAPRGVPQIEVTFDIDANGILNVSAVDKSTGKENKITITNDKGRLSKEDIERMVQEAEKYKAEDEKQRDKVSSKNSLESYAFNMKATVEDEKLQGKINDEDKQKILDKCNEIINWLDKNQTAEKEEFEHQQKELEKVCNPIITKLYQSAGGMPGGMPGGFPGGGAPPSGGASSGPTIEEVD

On to `CCCn1c(NC(=O)[C@H]2CCCN(c3cnccn3)C2)nc2ccccc21` [HS-72, (S)—N-(1-propyl-1H-benzo[d]imidazol-2-yl)-1-(pyrazin-2-yl)piperidine-3-carboxamide], for which the “effect on Tm of the Hsp70i C306D mutant” value in experiment [1] is listed as “does not change”. In addition, the “elution of Hsp70 from ATP resin” value in experiment [2] is “elutes Hsp70”. For the same compound, the “proteolytic pattern of Hsp70i” value in experiment [3] is recorded as “profound difference in the proteolytic pattern”. Further, the “effect on Tm of Hsc70” value in experiment [4] is “does not change”. For the same compound, the cell proliferation result in experiment [5] is recorded as “inhibits proliferation”; in experiment [6] (25 uM and 50 uM at 24, 48, and 72 hours) it was “inhibits proliferation”; in experiment [7], “inhibits proliferation”; in experiment [8], “inhibits proliferation”. Moreover, the “cell proliferation, combination with HS-10” value in experiment [6] is reported as “synergistic inhibition”; in experiment [7] it was “additive effect”; in experiment [7] (listed as HS72) it was “synergism”; in experiment [8], “additive effect”; in experiment [8] (listed as HS72) it was “synergism”.
